Literature values, collected in US20080139514A1, “DIPHOSPHONIC ACID PHARMACEUTICAL COMPOSITIONS” (priority 2006, published 2008).
Read-outs that look alike come from different tables or passages of the source.

Experiments:
[1] = stored at room temperature

Compound	Solubility in water (monosodium monohydrate)	Stability on storage [1]	Solubility in organic solvents (organic solvents)	Solubility in water
CCCCCN(C)CCC(O)(P(=O)(O)O)P(=O)(O)O [ibandronate sodium, ibandronate monosodium monohydrate]	poor	quite stable	–	–
CCCCCN(C)CCC(O)(P(=O)(O)O)P(=O)(O)O [Ibandronic acid, 3-(N-methyl-N-pentyl) amino-1-hydroxypropane-1,1-diphosphonic acid]	–	–	practically insoluble	freely soluble
